Assay: mn = molality of the nth substance listed, in mol/kg
Conditions: 101.3 kPa, Liquid; for speed of sound: Single path-length method; for mass density: Vibrating tube method

CCCCCCCn1cc[n+](C)c1.[Br-] [1-heptyl-3-methylimidazolium bromide] + O
Conditions	mass density, 288.15 K [kg/m3]	mass density, 293.15 K [kg/m3]	mass density, 298.15 K [kg/m3]	mass density, 303.15 K [kg/m3]	mass density, 308.15 K [kg/m3]	speed of sound, 288.15 K [m/s]	speed of sound, 293.15 K [m/s]	speed of sound, 298.15 K [m/s]	speed of sound, 303.15 K [m/s]	speed of sound, 308.15 K [m/s]
m1 = 0.0096	999.568	998.662	997.491	996.083	994.457	1468.2	1484.2	1498.3	1510.5	1521.1
m1 = 0.0113	999.656	998.746	997.574	996.165	994.539	1468.5	1484.4	1498.5	1510.8	1521.3
m1 = 0.0151	999.839	998.926	997.75	996.337	994.708	1469.1	1485	1499	1511.2	1521.7
m1 = 0.0226	1000.2	999.279	998.097	996.677	995.043	1470.4	1486.1	1500.1	1512.2	1522.6
m1 = 0.0306	1000.59	999.656	998.464	997.04	995.398	1471.8	1487.3	1501.2	1513.1	1523.5
m1 = 0.0384	1000.96	1000.03	998.827	997.395	995.747	1472.9	1488.5	1502.2	1514.1	1524.4
m1 = 0.0571	1001.85	1000.9	999.682	998.23	996.569	1476.1	1491.2	1504.7	1516.3	1526.4
m1 = 0.0778	1002.84	1001.86	1000.62	999.158	997.477	1479.3	1494.3	1507.5	1518.9	1528.6
m1 = 0.097	1003.74	1002.74	1001.49	1000.01	998.309	1482.3	1497	1509.9	1521.1	1530.7
m1 = 0.1158	1004.62	1003.6	1002.33	1000.83	999.119	1485.2	1499.7	1512.3	1523.3	1532.6
m1 = 0.1383	1005.67	1004.63	1003.34	1001.81	1000.08	1488.7	1502.8	1515.2	1525.8	1534.9
m1 = 0.1566	1006.51	1005.45	1004.14	1002.6	1000.86	1491.5	1505.3	1517.4	1527.9	1536.7
m1 = 0.174	1007.32	1006.24	1004.91	1003.35	1001.6	1494	1507.6	1519.5	1529.8	1538.4

From the NIST ThermoML archive (doi:10.1016/j.fluid.2010.08.004)
